Assay results from article PMC9646747, “An allosteric modulator activates BK channels by perturbing coupling between Ca^2+ binding and pore opening” (Nature Communications, 2022).

Target: T1, BK channel (Slo1, mslo1 mbr5 splice variant) (Mus musculus, UniProt Q08460)
T1 construct: gene Kcnma1; mbr5 splice variant of mslo1
Assay: inside-out patch-clamp of channels expressed in Xenopus oocytes (GV shift dose response; also outward-current block, IC50 […]), supported by mutagenesis
Assay type: cell-based

Work on `COc1cc(NC(=O)[C@@H](N)CCCNC(=N)N)cc2ccccc12` [BC5] yielded an EC50 of 2500 ± 300 nM.
